In ChEMBL document CHEMBL1201862, “PubChem BioAssay data set” (2004):
The source made the active and inactive calls.

Experiments:
Cytochrome P450 2C19 = Cytochrome P450 2C19 (Homo sapiens, UniProt P33261); assay: Cytochrome panel assay with activity outcomes. Panel member name: p450-cyp2c19 Compounds with AC50 equal or less than 10 uM are considered active; type: functional; conditions: read-out: AC50
Cytochrome P450 1A2 = molecular target: T1, Cytochrome P450 1A2 (Homo sapiens, UniProt P05177);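 note: PubChem cytochrome P450 panel assay, CYP1A2 panel member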
T1 sequence (P05177 whole entry): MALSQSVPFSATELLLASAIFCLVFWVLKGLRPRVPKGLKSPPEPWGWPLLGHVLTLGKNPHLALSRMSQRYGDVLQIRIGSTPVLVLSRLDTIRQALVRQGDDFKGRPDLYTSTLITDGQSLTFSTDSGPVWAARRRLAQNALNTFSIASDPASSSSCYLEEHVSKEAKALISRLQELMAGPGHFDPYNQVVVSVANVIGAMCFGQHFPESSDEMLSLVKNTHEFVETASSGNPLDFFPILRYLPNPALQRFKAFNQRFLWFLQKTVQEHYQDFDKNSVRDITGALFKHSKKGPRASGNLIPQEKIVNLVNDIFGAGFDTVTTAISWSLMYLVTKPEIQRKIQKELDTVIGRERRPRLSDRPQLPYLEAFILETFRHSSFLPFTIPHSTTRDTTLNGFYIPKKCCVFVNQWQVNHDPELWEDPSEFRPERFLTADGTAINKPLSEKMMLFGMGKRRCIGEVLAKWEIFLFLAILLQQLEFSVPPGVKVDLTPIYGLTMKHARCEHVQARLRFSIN

Cytochrome P450 3A4 [1] = molecular target: T2, Cytochrome P450 3A4 (Homo sapiens, UniProt P08684);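 note: CYP3A4 tested as one member of a cytochrome P450 panel screen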
Cytochrome P450 2D6 [2] = molecular target: T3, Cytochrome P450 2D6 (Homo sapiens, UniProt P10635);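 note: CYP2D6 member of a cytochrome P450 panel assay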
[3] = molecular target: UDP-galactopyranose mutase (Mycobacterium tuberculosis, UniProt P9WIQ1); assay: Inhibitors of Mycobacterium tuberculosis UDP-galactopyranose mutase (UGM) enzyme Measured in Biochemical System Using Plate Reader - 2105-02_Inhibitor_Dose_CherryPick_Activity. [Related pubchem assays (depositor defined):AID504439]
[4] = molecular target: T4, Replicative DNA helicase DnaB (Mycobacterium tuberculosis, UniProt P9WMR3); assay: DnaB intein splicing inhibitors, dose response, biochemical, cell-free fluorescence (AID 449749); type: functional
T4 sequence (P9WMR3 whole entry): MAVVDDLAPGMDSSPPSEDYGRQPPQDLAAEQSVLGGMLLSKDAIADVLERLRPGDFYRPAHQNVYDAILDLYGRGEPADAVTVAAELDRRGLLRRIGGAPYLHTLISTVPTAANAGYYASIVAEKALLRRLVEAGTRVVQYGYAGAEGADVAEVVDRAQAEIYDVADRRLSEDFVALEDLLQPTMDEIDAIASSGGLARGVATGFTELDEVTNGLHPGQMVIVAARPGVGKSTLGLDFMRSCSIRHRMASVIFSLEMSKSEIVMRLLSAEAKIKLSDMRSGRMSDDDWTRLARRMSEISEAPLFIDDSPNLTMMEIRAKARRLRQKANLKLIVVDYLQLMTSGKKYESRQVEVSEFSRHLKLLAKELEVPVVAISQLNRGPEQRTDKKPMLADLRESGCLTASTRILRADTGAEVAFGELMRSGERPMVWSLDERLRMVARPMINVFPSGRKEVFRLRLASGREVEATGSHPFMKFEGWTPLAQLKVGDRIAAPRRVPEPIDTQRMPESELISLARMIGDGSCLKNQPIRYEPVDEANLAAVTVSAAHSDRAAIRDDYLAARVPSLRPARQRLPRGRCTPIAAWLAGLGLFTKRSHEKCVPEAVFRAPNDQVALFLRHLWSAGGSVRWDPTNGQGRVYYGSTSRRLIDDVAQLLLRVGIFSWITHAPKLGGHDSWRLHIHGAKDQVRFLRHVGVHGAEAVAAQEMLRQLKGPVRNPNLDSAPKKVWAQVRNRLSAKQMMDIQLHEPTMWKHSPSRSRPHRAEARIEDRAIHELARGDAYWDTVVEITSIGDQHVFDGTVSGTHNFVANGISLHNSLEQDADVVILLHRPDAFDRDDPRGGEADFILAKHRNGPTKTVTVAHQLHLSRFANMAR

Keap1/Nrf2 = Keap1/Nrf2 (Homo sapiens, UniProt Q14145); assay: Keap1-Nrf2 protein-protein interaction inhibitors, dose response, biochemical, fluorescence polarization, cherry-picked samples (AID 588683)
Protein RecA = molecular target: T5, Protein RecA (Mycobacterium tuberculosis, UniProt P9WHJ3); assay: Fluorescence Cell-Free Homogeneous Dose Retest to Identify Inhibitors of RecA-Intein Splicing Activity. [Related pubchem assays (depositor defined):AID2097, AID2223, AID489010, AID492950]; type: functional
T5 sequence (P9WHJ3 whole entry): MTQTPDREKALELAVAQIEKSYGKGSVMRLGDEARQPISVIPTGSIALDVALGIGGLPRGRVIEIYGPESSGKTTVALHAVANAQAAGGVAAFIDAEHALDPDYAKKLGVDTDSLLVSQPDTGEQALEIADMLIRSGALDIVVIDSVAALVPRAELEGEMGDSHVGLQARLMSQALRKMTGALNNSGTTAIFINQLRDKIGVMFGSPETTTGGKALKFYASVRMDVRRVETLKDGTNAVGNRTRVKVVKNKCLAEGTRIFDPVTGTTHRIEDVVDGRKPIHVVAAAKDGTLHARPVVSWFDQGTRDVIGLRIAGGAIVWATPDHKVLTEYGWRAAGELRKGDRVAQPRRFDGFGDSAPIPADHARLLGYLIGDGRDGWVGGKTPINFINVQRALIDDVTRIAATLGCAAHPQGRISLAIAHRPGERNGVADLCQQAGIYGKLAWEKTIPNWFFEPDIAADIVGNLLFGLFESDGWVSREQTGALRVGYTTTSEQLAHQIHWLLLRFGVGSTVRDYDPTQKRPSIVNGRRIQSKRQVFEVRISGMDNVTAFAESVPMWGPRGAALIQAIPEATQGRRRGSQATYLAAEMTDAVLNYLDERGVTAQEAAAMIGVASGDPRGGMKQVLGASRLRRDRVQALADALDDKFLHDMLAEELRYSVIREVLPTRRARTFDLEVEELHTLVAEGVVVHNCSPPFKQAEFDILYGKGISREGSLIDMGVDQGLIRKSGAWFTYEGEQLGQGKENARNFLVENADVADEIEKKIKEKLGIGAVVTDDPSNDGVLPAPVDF

INS1 = assay: beta cell apoptosis inhibitors, cytokine rescue, dose response, luminescence, retest (AID 449756); type: functional, cell-based; conditions: Rattus norvegicus;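 note: cell death triggered by IL-1 beta plus TNF-alpha plus IFN-gamma mixture; protective hits raise ATP signal compared with cytokine alone wells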
[5] = Intein inhibitors as potential Tuberculosis drugs, a cytotoxicity screen. [Related pubchem assays (depositor defined):AID2221, AID2223, AID434968, AID435010, AID449749, AID449750, AID489010]; type: functional
[6] = molecular target: G-protein coupled receptor 55 (Homo sapiens, UniProt Q9Y2T6); assay: GPR55 antagonists, SAR follow-up, counter-screen for GPR35 antagonist project, imaging, image-based (AID 2397); type: functional
Protein skinhead-1 = molecular target: T6, Protein skinhead-1 (Caenorhabditis elegans, UniProt P34707); type: functional
T6 sequence (P34707 whole entry): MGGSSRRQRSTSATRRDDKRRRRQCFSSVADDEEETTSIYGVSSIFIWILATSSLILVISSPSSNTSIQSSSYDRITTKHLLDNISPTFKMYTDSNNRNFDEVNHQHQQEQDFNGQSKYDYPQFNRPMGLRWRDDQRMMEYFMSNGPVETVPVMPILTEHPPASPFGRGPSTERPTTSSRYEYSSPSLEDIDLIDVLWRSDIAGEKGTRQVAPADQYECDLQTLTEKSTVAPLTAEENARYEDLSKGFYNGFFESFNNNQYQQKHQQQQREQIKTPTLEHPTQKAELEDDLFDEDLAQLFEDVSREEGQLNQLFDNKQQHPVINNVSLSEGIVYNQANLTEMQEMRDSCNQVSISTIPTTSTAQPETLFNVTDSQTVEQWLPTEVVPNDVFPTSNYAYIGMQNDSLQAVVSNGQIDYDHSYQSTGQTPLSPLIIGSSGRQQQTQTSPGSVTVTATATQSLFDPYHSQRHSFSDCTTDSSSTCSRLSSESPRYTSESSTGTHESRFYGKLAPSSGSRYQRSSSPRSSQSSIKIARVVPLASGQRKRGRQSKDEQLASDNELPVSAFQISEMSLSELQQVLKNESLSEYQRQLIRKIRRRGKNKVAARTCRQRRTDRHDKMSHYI

Cytochrome P450 2D6 [7] = molecular target: T3, Cytochrome P450 2D6; remark: listed apart in the source
Cytochrome P450 2C9 = Cytochrome P450 2C9 (Homo sapiens, UniProt P11712)
Cytochrome P450 3A4 [8] = molecular target: T2, Cytochrome P450 3A4; remark: listed apart in the source
[9] = molecular target: T7, Tyrosine-protein phosphatase non-receptor type 7 (Homo sapiens, UniProt P35236); type: functional
T7 sequence (P35236 whole entry): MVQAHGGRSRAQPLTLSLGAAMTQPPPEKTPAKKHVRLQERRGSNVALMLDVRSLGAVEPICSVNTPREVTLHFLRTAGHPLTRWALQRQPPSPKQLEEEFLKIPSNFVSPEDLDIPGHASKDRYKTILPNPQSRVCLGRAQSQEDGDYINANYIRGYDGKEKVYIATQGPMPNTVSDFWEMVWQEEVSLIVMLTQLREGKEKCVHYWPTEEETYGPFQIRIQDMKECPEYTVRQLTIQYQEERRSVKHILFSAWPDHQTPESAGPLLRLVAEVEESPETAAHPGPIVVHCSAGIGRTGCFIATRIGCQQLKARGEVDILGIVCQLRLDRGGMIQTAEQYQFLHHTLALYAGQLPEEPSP

Bcl-2-like protein 10 = molecular target: T8, Bcl-2-like protein 10 (Homo sapiens, UniProt Q9HD36); assay: displacers of TR3 peptide from Bcl-B, primary screen, selectivity assay for Bfl-1 inhibitor project, biochemical, fluorescence polarization, FITC-TR3 peptide (AID 748);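 note: fluorescence polarization from a fluorescein-labelled TR3 peptide binding purified Bcl-B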
T8 sequence (Q9HD36 whole entry): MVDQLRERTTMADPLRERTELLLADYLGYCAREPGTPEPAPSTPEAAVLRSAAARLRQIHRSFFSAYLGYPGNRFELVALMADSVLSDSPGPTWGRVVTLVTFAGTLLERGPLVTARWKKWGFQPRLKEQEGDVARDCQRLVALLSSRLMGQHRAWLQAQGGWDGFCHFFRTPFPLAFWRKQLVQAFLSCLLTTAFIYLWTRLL

[10] = molecular target: Glyceraldehyde-3-phosphate dehydrogenase (Homo sapiens, UniProt P04406)
[11] = molecular target: Induced myeloid leukemia cell differentiation protein Mcl-1 (Homo sapiens, UniProt Q07820); assay: MCL1-BIM BH3 interaction inhibitors, dose response, biochemical, fluorescence polarization, BIM-BH3 peptide, 1536-well (AID 2217)
[12] = molecular target: T9, Dual specificity protein phosphatase 6 (Rattus norvegicus, UniProt Q64346)
T9 sequence (Q64346 whole entry): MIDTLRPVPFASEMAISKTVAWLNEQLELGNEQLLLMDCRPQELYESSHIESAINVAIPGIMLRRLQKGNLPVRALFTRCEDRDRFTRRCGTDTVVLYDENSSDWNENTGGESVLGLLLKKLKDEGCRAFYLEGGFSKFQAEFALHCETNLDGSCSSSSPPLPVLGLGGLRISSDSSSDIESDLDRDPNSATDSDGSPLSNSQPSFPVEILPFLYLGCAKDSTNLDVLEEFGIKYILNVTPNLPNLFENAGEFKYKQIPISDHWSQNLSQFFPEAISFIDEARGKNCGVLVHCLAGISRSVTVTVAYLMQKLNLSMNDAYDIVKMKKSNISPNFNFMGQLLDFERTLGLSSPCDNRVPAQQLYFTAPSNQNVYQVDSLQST

Bcl-2-like protein 1 = Bcl-2-like protein 1 (Homo sapiens, UniProt Q07817); assay: BCL-XL inhibitors, dose response, selectivity assay for MCL1 inhibitor project, biochemical, fluorescence polarization, 1536-well (AID 2218)
[13] = molecular target: T9, Dual specificity protein phosphatase 6; assay: MKP-3 phosphatase inhibitors, primary screen, biochemical, rat enzyme, in vitro (AID 425)
[14] = molecular target: Dual specificity protein phosphatase 3 (Homo sapiens, UniProt P51452); assay: SAR VHR1 Fluorescent Assay for In Vitro dose response studies. [Related pubchem assays (depositor defined):AID1654, AID1661, AID1878, AID1992, AID2004, AID2070, AID2085]; type: functional
[15] = molecular target: T7, Tyrosine-protein phosphatase non-receptor type 7; assay: redox-dependent HePTP inhibition, mechanism study, biochemical, fluorescence (AID 2068); type: functional
[16] = molecular target: T9, Dual specificity protein phosphatase 6; type: functional
Protein Tat = molecular target: T10, Protein Tat (Human immunodeficiency virus type 1 group M subtype B (isolate HXB2)(HIV-1), UniProt P04608); type: functional;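 note: tat binding to TAR RNA read out by fluorescence polarization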
T10 sequence (P04608 whole entry): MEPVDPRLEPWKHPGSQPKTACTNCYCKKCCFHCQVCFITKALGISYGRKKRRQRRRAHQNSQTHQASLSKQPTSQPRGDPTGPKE
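Throughout, for CC50: cells exposed to compound for 72 hours before luminescence readout.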

T3 sequence (P10635 whole entry): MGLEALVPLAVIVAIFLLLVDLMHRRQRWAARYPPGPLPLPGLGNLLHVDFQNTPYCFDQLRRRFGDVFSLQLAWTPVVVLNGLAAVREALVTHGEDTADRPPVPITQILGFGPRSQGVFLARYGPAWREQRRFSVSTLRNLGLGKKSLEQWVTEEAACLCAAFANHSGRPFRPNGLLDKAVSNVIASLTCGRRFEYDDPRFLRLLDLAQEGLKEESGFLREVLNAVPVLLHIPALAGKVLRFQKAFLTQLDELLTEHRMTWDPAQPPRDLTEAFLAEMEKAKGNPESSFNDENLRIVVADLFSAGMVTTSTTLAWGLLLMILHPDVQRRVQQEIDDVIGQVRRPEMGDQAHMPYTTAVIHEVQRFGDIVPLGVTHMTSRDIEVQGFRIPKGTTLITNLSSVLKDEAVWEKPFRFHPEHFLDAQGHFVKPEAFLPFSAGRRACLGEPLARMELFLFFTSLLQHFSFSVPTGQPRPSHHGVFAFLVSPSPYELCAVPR
T2 sequence (P08684 whole entry): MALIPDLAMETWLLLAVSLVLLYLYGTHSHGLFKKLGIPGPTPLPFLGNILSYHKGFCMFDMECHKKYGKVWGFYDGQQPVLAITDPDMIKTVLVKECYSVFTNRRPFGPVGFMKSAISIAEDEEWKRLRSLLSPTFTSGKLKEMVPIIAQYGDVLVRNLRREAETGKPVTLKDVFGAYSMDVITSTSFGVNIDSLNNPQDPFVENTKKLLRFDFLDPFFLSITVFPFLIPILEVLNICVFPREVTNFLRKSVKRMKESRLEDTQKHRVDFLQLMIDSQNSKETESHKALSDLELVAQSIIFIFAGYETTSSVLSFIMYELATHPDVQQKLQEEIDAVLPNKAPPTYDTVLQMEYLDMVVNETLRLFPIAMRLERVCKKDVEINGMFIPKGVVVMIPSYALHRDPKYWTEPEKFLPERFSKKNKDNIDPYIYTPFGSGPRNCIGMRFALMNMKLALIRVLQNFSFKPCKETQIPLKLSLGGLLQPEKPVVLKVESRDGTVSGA
Sequence of G-protein coupled receptor 55 (Q9Y2T6 whole entry): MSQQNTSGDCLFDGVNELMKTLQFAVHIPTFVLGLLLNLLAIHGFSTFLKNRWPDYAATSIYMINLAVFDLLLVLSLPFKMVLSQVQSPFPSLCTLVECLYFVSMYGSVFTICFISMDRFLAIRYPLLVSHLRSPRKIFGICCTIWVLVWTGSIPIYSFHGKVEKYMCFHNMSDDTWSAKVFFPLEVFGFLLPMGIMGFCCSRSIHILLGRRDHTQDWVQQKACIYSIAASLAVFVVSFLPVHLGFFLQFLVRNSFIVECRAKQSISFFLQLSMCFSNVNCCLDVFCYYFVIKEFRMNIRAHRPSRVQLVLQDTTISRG
Sequence of Keap1/Nrf2 (Q16236 whole entry): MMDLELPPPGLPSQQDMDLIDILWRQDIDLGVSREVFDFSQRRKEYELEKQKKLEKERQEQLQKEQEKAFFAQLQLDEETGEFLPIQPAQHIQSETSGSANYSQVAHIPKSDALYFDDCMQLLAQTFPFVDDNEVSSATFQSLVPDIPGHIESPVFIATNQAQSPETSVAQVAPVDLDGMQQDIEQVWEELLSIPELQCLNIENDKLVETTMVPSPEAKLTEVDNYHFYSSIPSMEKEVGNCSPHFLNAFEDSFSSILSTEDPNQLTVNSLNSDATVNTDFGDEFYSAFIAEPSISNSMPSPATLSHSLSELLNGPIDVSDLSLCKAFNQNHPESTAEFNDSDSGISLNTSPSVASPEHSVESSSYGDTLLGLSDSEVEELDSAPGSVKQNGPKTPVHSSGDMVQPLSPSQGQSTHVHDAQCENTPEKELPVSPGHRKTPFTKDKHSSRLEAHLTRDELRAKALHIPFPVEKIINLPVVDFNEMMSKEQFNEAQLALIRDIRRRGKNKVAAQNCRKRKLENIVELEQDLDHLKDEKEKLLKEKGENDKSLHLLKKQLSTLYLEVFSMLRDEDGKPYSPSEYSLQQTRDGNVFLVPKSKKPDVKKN
Sequence of Keap1/Nrf2 (Q14145 whole entry): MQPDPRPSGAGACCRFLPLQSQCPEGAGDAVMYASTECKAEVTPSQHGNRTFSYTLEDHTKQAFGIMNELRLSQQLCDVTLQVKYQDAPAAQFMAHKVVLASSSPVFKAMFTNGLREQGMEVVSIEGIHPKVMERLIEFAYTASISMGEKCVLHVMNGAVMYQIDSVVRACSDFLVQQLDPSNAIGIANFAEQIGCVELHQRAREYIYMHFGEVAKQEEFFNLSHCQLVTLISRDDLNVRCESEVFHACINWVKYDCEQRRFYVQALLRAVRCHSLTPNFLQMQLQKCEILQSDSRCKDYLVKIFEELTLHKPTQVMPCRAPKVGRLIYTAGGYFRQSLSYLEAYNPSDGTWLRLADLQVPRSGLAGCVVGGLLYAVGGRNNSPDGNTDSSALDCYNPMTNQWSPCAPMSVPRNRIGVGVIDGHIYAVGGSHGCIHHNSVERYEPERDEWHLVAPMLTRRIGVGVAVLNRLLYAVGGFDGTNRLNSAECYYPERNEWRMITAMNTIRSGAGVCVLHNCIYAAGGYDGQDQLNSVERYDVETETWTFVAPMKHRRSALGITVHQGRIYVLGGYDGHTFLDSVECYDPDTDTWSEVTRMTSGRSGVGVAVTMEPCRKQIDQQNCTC
Sequence of Dual specificity protein phosphatase 3 (P51452 whole entry): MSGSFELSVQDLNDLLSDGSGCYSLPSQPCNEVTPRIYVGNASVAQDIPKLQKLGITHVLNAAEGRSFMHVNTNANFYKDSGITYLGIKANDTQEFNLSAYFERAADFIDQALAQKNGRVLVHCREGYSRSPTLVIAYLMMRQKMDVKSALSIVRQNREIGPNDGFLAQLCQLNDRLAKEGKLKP
Sequence of Cytochrome P450 2C19 (P33261 whole entry): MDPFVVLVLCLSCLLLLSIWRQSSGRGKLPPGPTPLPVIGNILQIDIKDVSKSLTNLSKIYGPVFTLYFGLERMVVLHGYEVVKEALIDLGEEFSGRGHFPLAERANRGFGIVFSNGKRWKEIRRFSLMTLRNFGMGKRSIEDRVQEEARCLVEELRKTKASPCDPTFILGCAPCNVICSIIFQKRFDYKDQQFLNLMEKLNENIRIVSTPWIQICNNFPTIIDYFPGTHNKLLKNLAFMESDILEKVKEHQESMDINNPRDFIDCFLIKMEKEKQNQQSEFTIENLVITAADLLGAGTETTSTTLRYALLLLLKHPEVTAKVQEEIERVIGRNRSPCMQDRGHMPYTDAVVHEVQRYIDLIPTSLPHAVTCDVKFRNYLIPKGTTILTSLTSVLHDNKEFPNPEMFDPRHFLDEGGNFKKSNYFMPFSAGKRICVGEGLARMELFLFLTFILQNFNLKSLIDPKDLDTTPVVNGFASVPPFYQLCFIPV
Sequence of Induced myeloid leukemia cell differentiation protein Mcl-1 (Q07820 whole entry): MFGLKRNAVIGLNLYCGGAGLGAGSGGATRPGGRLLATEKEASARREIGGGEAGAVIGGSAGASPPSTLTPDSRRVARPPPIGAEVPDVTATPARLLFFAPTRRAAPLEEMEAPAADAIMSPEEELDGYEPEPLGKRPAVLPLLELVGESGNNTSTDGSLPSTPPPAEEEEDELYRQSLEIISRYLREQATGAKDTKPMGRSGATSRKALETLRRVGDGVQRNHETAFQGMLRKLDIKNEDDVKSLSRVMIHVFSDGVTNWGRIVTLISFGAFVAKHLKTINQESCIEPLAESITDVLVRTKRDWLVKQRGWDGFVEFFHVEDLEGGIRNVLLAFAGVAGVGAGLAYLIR
Sequence of Glyceraldehyde-3-phosphate dehydrogenase (P04406 whole entry): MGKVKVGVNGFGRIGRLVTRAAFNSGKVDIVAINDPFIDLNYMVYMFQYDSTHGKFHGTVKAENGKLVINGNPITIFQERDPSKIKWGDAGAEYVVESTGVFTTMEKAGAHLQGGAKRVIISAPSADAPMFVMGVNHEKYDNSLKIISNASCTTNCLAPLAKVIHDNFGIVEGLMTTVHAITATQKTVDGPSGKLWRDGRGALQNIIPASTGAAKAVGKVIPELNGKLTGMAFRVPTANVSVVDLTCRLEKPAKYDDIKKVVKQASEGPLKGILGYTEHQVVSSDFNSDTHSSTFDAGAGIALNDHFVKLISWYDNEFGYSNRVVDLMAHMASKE
Sequence of Bcl-2-like protein 1 (Q07817 whole entry): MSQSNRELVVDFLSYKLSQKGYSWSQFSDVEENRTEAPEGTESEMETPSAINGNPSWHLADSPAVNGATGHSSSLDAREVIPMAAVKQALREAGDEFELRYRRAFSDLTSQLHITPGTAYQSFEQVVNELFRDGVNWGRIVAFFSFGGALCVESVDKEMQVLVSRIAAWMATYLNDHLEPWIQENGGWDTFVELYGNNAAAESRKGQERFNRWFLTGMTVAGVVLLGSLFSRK
Sequence of Cytochrome P450 2C9 (P11712 whole entry): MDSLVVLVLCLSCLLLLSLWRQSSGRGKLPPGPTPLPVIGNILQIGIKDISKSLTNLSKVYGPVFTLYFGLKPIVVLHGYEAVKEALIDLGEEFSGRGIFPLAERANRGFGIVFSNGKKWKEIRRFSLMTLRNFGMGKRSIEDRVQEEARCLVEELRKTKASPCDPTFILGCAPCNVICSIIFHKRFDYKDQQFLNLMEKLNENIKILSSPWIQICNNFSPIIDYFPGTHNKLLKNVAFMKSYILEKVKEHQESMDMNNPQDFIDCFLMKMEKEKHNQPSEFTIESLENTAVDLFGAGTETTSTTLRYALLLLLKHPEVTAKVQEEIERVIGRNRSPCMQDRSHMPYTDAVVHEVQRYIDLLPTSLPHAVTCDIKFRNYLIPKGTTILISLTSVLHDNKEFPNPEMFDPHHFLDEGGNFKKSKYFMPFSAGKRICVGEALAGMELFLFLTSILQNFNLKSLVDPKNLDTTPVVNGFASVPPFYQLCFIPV

CC(C)(C)c1ccc(-c2nnc(SCC(=O)c3ccc4c(c3)OCCO4)o2)cc1
AC50 (Cytochrome P450 2C19): 3.98 µM (inconclusive)
AC50 (Cytochrome P450 1A2): 2.24 µM (inconclusive)
AC50 (Cytochrome P450 3A4 [1]): 39.8 µM (inconclusive)
AC50 (Cytochrome P450 2D6 [2]): inconclusive

COCCNC(=O)Cn1cc(C=C2C(=O)NC(=O)NC2=O)c2ccccc21
AC50 [3]: 46.3 µM (active)

Cc1ccc(S(=O)(=O)Nc2ccc(O)c3ccccc23)c(C)c1
AC50 [4]: 0.132 µM (active)
AC50 (Keap1/Nrf2): > 52 µM (inactive)
EC50 (Protein RecA): 0.0702 µM (active)
AC50 (INS1): 5.61 µM (active)

O=C(CCCN1C(=O)/C(=C/c2cccs2)SC1=S)Nc1ccc(O)cc1
CC50 [5]: 28.5 µM (active)
IC50 [6]: 30.5 µM (inactive)
AC50 [4]: 2.11 µM (active)
EC50 (Protein RecA): 3.25 µM (active)
IC50 (Protein skinhead-1): > 100 µM (inactive)

COC(=O)C1Cc2c([nH]c3ccccc23)CN1 (stereo not drawn)
AC50 (Cytochrome P450 2D6 [7]): 14.1 µM (inconclusive)
AC50 (Cytochrome P450 2C9): 25.1 µM (inconclusive)
AC50 (Cytochrome P450 3A4 [8]): inconclusive

c1ccc(CSc2nnc(-c3ccco3)c(-c3ccco3)n2)cc1
IC50 [9]: 13.3 µM (active)
IC50 (Bcl-2-like protein 10): 5.55 µM (active)
IC50 [10]: > 100 µM (not active)
IC50 [11]: 2.92 µM (active)
IC50 [12]: 23.9 µM (active)
IC50 (Bcl-2-like protein 1): > 109 µM (not active)
IC50 [13]: > 10 µM (not active)
IC50 [14]: 7.06 µM (active)
IC50 [15]: 0.284 µM (active)
IC50 [16]: 24.2 µM (active)
IC50 (Protein Tat): 4.04 µM (inconclusive)
